Measured values from US4460560A, “Drug delivery by polymeric carriers” (University of Southern California, priority 1982, dated 1984).

What was measured:
hepatocytes [1] = assay: Cell viability by 51Cr release; format: cell-based, rat; set-up: concentration or dose not given beside the values
Experimental: (§1) Cytotoxic effects of the microspheres of EXAMPLE 3 and free doxorubicin were investigated using short-term monolayer cultures established from the livers of normal rats and rats which had been fed 2-AAF or DEN. Cell viability was evaluated by trypan blue exclusion and confirmed by ^51 Cr release.
(§2) Male Fischer 344 rats weighing 150 to 200 g were used to obtain viable hepatocytes. The animals were fed a basal, high-casein diet. A 12-hr light cycle was maintained in the animal colony and water was given ad libitum. Carcinogen altered hepatocytes were produced by feeding the animals a diet containing 0.02% 2-AAF (w/w) or 80 ppm DEN in the drinking water for 8 to 12 weeks. Cells from such animals were used in the cytotoxicity and cell viability studies reported herein.
(§3) Liver cell suspensions were prepared by the collagenase perfusion technique. Cell suspensions were passed through sterile gauze filters to remove large tissue pieces. Viability was assessed by trypan blue exclusion and perfusates containing less than 65% viable cells were not used. Cells were plated at density of 1×10^6 viable cells per plastic culture flask of 25 cm^2 surface area in 4 ml of L-15 medium containing 3.5 mg/ml 4-(2-hydroxyethyl)-1-piperazineethanesulfonic acid and 2 mg/ml bovine serum albumin. The medium was supplemented with 10% fetal bovine serum, 100 μg/ml penicillin, and streptomycin. Following a 2 hour attachment period at 37° in a water-saturated 5% CO2 -95% air incubator, the cells were washed twice with medium and placed in 4ml of fresh medium supplemented with 200 μl PBS, free doxorubicin, uncoupled microspheres, or the polymer bound drug. At various times 0.8 ml of trypan blue was added to each flask and incubated for 10 minutes at 37°. The medium was removed and the number of viable cells was counted.
^51 Cr in the form of sodium chromate in sterile isotonic saline was added to the cell suspensions at a concentration of 100 μCi/0.5 ml/5×10^6 cells. The cells were then incubated at 37° for 1 hour with constant shaking. After labeling, the supernatent was removed by centrifugation at 350×g for 5 min and the cells were washed a minimum of 5 times in L-15 medium. Labeled cells were then aliquoted into culture flasks and allowed to attach as previously described. At various times 250 μl aliquots were removed from the flasks and counted in a Packard Gamma Counter. As a control for complete ^51 Cr release, 0% cell viability, cells were detached from the culture flask surface with 10% trypsin and subsequently lysed with 0.5% Nonidet P-40 followed by sonication. Total ^51 Cr release was obtained by subtraction of the residual radioactivity which remained associated with the cell debris.

hepatocytes [2] = assay: Cell viability by trypan blue exclusion (Table 2); format: cell-based, rat; set-up: concentration or dose not given beside the values
Experimental: as §1, §2, §3

[3] = Time-survival response, trypan blue viability; format: cell-based; details: rat, hepatocytes, 10^-6 M
From the text: as §2, §3
These studies are not continued for longer than 24 hours due to the rapid natural decline in viability observed with untreated cells after prolonged cell culture. The viability of untreated control cultures remained constant throughout each experiment. […] However, cell viability in the presence of free drug was not affected during the first 4 hours of treatment. Alternatively, at 24 hours only 10% of the cells treated with free drug remained viable while 64% of those treated with the bound drug were unaffected. Cell viability was not influenced by addition of uncoupled microspheres to the cultures.

[4] = system: hepatocytes made resistant by 2-AAF feeding; assay: Viability of carcinogen altered drug-resistant hepatocytes; format: cell-based, rat; details: for viability at 1 µM: 10^-6 M
From the text: as §2, §3
Hepatocytes in perfusates obtained from rats which had been fed the dietary carcinogen 2-AAF are highly resistant to the cytocidal effects of doxorubicin. Experiments were performed to determine the toxicity of the doxorubicin microspheres with regard to these resistant hepatocytes. […] Concentrations of free doxorubicin must be approximately 100-fold higher than the polymer-bound drug to decrease viability to 50%. The most significant differences in cytotoxicity occurred at a concentration of 10^-5 M where the free drug treated hepatocytes remained unaffected and polymer-bound doxorubicin decreased viability to 47%. Subsequent experiments were done with 10^-6 M, free or bound drug, to approach clinically relevant concentrations.
Cell kill kinetics of hepatocytes made resistant by 2-AAF feeding are depicted in TABLE 5. […] At 24 hours, only 67% of the cells remained viable. When hepatocytes made resistant by DEN feeding were used, the same results for free and polymer-bound Adr at 10^-6 M were obtained.

[5] = system: hepatocytes made resistant by DEN feeding; assay: as above; format: cell-based, rat; details: 24 hours; 10^-6 M
From the text: as §2
Liver cell suspensions were prepared by the collagenase perfusion technique. Cell suspensions were passed through sterile gauze filters to remove large tissue pieces. Viability was assessed by trypan blue exclusion and perfusates containing less than 65% viable cells were not used. Cells were plated at density of 1×10^6 viable cells per plastic culture flask of 25 cm^2 surface area in 4 ml of L-15 medium containing 3.5 mg/ml 4-(2-hydroxyethyl)-1-piperazineethanesulfonic acid and 2 mg/ml bovine serum albumin. The medium was supplemented with 10% fetal bovine serum, 100 μg/ml penicillin, and streptomycin. […] The medium was removed and the number of viable cells was counted. […]

CCRF-CEM/Vbl 100 = assay: Cytostatic assay, IC50 determination; format: cell-based; details: Homo sapiens, after 4 to 6 doubling times, average of three determinations
Experimental: (§4) In order to test the cytostatic activity of the microspheres, IC50 determinations were made with both the free drug and the drug-polymer complexes. All cell lines were maintained in suspension cultures in RPMI-1640 medium supplemented with the 2% fetal calf serum, 8% newborn calf serum, 0.5 mg/ml penicillin-streptomycin, and 0.015 mg/ml fungizone. The cells were diluted to 40,000 cells/assay/1.8 ml medium and an amount of free doxorubicin, doxorubicin-microspheres or plain microspheres was added in 0.2 ml of phosphate buffered saline. After 4 to 6 doubling times had elapsed, the remaining cells were counted on a Coulter counter. A ratio of the number of cells after incubation per the number of cells originally introduced (Nt/No) was obtained. The drug concentration required for 50% inhibition of cell growth (IC50) was calculated according to the formula [formula]

CCRF-CEM/Vbl 500 = assay: Cytostatic assay, IC50 determination; format: cell-based; details: Homo sapiens, after 4 to 6 doubling times, average of three determinations
Experimental: as §4

CCRF-CEM = assay: Cytostatic assay, IC50 determination; format: cell-based; details: Homo sapiens, after 4 to 6 doubling times, average of three determinations
Experimental: as §4

L1210 = assay: Cytostatic assay, IC50 determination; format: cell-based; details: Mus musculus, after 4 to 6 doubling times, average of three determinations
Experimental: as §4

S-180 = assay: Cytostatic assay, IC50 determination; format: cell-based; details: after 4 to 6 doubling times, average of three determinations
Experimental: as §4

CEM/Vbl 100 = assay: Growth inhibition study; format: cell-based, human; details: 3-6 doubling times
Experimental: (§5) Cell lines used were the human leukemia clones CCRF-CEM/Vbl 500 and CCRF-CEM/Vbl 100 and rat liver cancer cells (RLC). All cultures were maintained in RPMI-1640 medium supplemented with fetal calf serum (2%), newborn calf serum (8%), penicillin-streptomycin (0.5 mg/ml), and fungizone (0.015 mg/ml) (Flow Laboratories Inc.). Suspension cultures were diluted to 4×10^4 cells/assay/1.8 ml medium and attached cell lines were plated at 2.5×10^5 cells/25 cm^2 growth area/3.6 ml medium. Appropriate quantities of free doxorubicin, microsphere coupled doxorubicin, plain polyglutaraldehyde microspheres, or PBS, were added and the assays were incubated for 3-6 doubling times at 37° in a 5% CO2 - 95% air incubator. Cells were then counted on a Model Zb Coulter counter and a ratio of total number of cells after incubation per number of cells originally introduced (Nt /No) was obtained.
(§6) The cell lines CEM/Vbl 100 and CEM/Vbl 500 were used in cytostatic assays to determine differences in growth inhibition properties between free doxorubicin and polymer-bound drug. Both cell lines are resistant to the effects of vinca alkaloids and are cross-resistant to Adr. […] However, using 10^-7 M of the coupled drug, the growth inhibition for both cell lines is greater than 50%. At 10^-8 M, polymer bound doxorubicin inhibits growth 4-10 times more effectively than free drug. […] Each experiment was performed three times and drug concentrations were tested in duplicate.

CEM/Vbl 500 = assay: Growth inhibition study; format: cell-based, human; details: Table 7, CEM/Vbl 100
Experimental: as §5, §6

[6] = system: rat liver cancer cell line RLC; assay: Growth inhibition study; format: cell-based
Experimental: as §5
The cytostatic activity of the drug polymer complex of EXAMPLE 3 was further investigated using the rat liver cancer cell line RLC. […] Furthermore, the Adr-PGLs retained growth inhibition properties at concentrations as low as 1×10^-9 M.

[7] = Homo sapiens, CEM/VBL100, 10^-5 M
[8] = Homo sapiens, CEM/VBL100, 10^-6 M
[9] = Homo sapiens, CEM/VBL100, 10^-7 M
[10] = Homo sapiens, CEM/VBL100, 10^-8 M
[11] = Homo sapiens, CEM/VBL100, 10^-9 M
[12] = Homo sapiens, CEM/VBL100, 10^-10 M

With `COc1cccc2c1C(=O)c1c(O)c3c(c(O)c1C2=O)C[C@@](O)(C(=O)CO)C[C@@H]3O[C@H]1C[C@H](N)[C@H](O)[C@H](C)O1` [Free doxorubicin, doxorubicin] the “Percent viability measured by Intracellular CR^51” value (hepatocytes [1]; incubation time 3 hr) was 100%, the “Percent viability measured by Intracellular CR^51” value (hepatocytes [1]; incubation time 5 hr) was 96% and the “Percent viability measured by Intracellular CR^51” value (hepatocytes [1]; incubation time 8 hr) was 86%. For the same molecule, the “Percent viability measured by Intracellular CR^51” value (hepatocytes [1]; incubation time 12 hr) was 75%, the “Percent viability measured by Intracellular CR^51” value (hepatocytes [1]; incubation time 18 hr) was 57% and the “Percent viability measured by Dye Exclusion” value (hepatocytes [2]; incubation time 3 hr) was 100%. For the same molecule, the “Percent viability measured by Dye Exclusion” value (hepatocytes [2]; incubation time 5 hr) was 99%, the “Percent viability measured by Dye Exclusion” value (hepatocytes [2]; incubation time 8 hr) was 81% and the “Percent viability measured by Dye Exclusion” value (hepatocytes [2]; incubation time 12 hr) was 72%. The “Percent viability measured by Dye Exclusion” value (hepatocytes [2]; incubation time 18 hr) was 59%, the viability at 2 h, 1 µM ([3]; 2 hours) was 99% and the viability at 4 h, 1 µM ([3]; 4 hours) was 98%. For the same molecule, the viability at 6 h, 1 µM ([3]; 6 hours) was 91%, the viability at 8 h, 1 µM ([3]; 8 hours) was 81% and the viability at 12 h, 1 µM ([3]; 12 hours) was 72%. For the same molecule, the viability at 18 h, 1 µM ([3]; 18 hours) was 59%, the viability at 24 h, 1 µM ([3]; 24 hours) was 10% and the “% Viability” value ([4]; 10^-5 M, 24-hr exposure, survival of attached cells compared to controls) was “unaffected”. For the same molecule, the “% Viability” value ([4]; 24 hours, 10^-6 M (Table 5)) was “no detectable killing effect”, the viability at 100 µM ([4]; Rattus norvegicus, Hepatocyte, 10^-4 M, 24-hr exposure, survival of attached cells compared to controls) was 68% and the viability at 10 µM ([4]; Rattus norvegicus, Hepatocyte, 10^-5 M, 24-hr exposure, survival of attached cells compared to controls) was 100%. The viability at 1 µM ([4]; Rattus norvegicus, Hepatocyte, 24-hr exposure, survival of attached cells compared to controls (Table 3)) was 100%, the viability at 0.1 µM ([4]; Rattus norvegicus, Hepatocyte, 10^-7 M, 24-hr exposure, survival of attached cells compared to controls) was 100% and the viability at 1 µM ([4]; Rattus norvegicus, Hepatocyte, 2 hours) was 100%. The viability at 1 µM ([4]; Rattus norvegicus, Hepatocyte, 3 hours) was 100%, the viability at 1 µM ([4]; Rattus norvegicus, Hepatocyte, 4 hours) was 100% and the viability at 1 µM ([4]; Rattus norvegicus, Hepatocyte, 6 hours) was 100%. For the same molecule, the viability at 1 µM ([4]; Rattus norvegicus, Hepatocyte, 8 hours) was 100%, the viability at 1 µM ([4]; Rattus norvegicus, Hepatocyte, 16 hours) was 100% and the viability at 1 µM ([4]; Rattus norvegicus, Hepatocyte, 22 hours) was 100%. For the same molecule, the viability [5] was “no killing effect”, the IC50 (CCRF-CEM/Vbl 100) was 390 nM and the IC50 (CCRF-CEM/Vbl 500) was 320 nM. It also gave an IC50 (CCRF-CEM) of 11 nM, an IC50 (L1210) of 28 nM and an IC50 (S-180) of 23 nM. The “% Inhibition of growth” value (CEM/Vbl 100; 10^-7 M, listed as Free Drug) was 22%, the inhibition at 10 µM (CEM/Vbl 100; [7]) was 98% and the inhibition at 1 µM (CEM/Vbl 100; [8]) was 86%. It also gave an inhibition at 0.1 µM (CEM/Vbl 100; [9]) of under 22%, an inhibition at 0.01 µM (CEM/Vbl 100; [10]) of 3% and an inhibition at 0.001 µM (CEM/Vbl 100; [11]) of 5%. The inhibition at 0.0001 µM (CEM/Vbl 100; [12]) was 0%, the “% Inhibition of growth” value (CEM/Vbl 500; 10^-7 M, listed as Free Drug) was 32% and the inhibition at 10 µM (CEM/Vbl 500; [7]) was 81%. For the same molecule, the inhibition at 1 µM (CEM/Vbl 500; [8]) was 67%, the inhibition at 0.1 µM (CEM/Vbl 500; [9]) was under 32% and the inhibition at 0.01 µM (CEM/Vbl 500; [10]) was 14%. It also gave an inhibition at 0.001 µM (CEM/Vbl 500; [11]) of 0%, an inhibition at 0.0001 µM (CEM/Vbl 500; [12]) of 0% and an inhibition at 10 pM (CEM/Vbl 500; Homo sapiens, CEM/VBL100, 10^-11 M) of 0%. For the same molecule, the inhibition at 1000 µM ([6]; 10^-3 M) was 100%, the inhibition at 100 µM ([6]; 10^-4 M) was 80% and the inhibition at 10 µM ([6]; 10^-5 M) was 36%. The inhibition at 1 µM ([6]; 10^-6 M) was 22%, the inhibition at 0.1 µM ([6]; 10^-7 M) was 0% and the inhibition at 0.01 µM ([6]; 10^-8 M) was 0%. The inhibition at 0.001 µM ([6]; 10^-9 M) was 0%, the inhibition at 0.0001 µM ([6]; 10^-10 M) was 0% and the IC50 ([6]; RLC, read-out: 50% inhibitory concentration (IC50)) was 18000 nM.
